Test results published in patent US12054498B2, “Heteroaromatic macrocyclic ether chemotherapeutic agents” (Nuvalent, Inc., priority 2020, dated 2024).

Tests used:
Type in all cases: cell-based
[1] = molecular target: T1, Ba/F3 cells CD74-ROS1 G2032R (Homo sapiens, UniProt P08922, G2032R); assay: Ba/F3 cell proliferation assay, CD74-ROS1 G2032R; conditions: 72 hours, CellTiter-Glo
T1 construct: fusion of the C-terminus of ROS1 with the N-terminus of various partner proteins; host or cells: Ba/F3 (RIKEN), retroviral pMSCV-puro; the other entry of the earlier key: CD74 (P04233, HLA class II histocompatibility antigen gamma chain)
Method: The virus was used to infect Ba/F3 cells (RIKEN) at multiplicity of infection=1 for 1 day. Infected cells were rescued in media (RPMI-1640 with 10% fetal bovine serum and 1% streptomycin and penicillin) supplemented with mouse IL-3 (10 ng/mL) for 2 days, and stable cell lines were selected by IL-3 withdrawal and puromycin (0.8 μg/mL) for 7 days. Monoclones were selected by single-cell dilution in IL-3-free medium containing puromycin (0.8 μg/mL).
(§1) Cell Proliferation Assay Stable cells were plated at 1,000 cells/well (40 μL) in a 384-well plate for 1 day.
(§2) Test compounds (40 nL) were then added in a 3-fold dilution series using the TECAN EVO200 liquid handler and incubated for 72 hours. Plates were equilibrated at room temperature for 15 minutes followed by addition of 40 μL CellTiter-Glo reagent (Promega).
(§3) Luminescence was measured on a plate reader. Half-maximal inhibitory concentration (IC50) was calculated from percent inhibition and inhibitor concentration using four-parameter logistic regression. […] (nd=not determined).

[2] = molecular target: T2, Ba/F3 cells EML4-ALK wt (variant 1) (Homo sapiens, UniProt Q9UM73); assay: Ba/F3 cell proliferation assay, EML4-ALK wt (variant 1); conditions: 72 hours, CellTiter-Glo
T2 construct: echinoderm microtubule-associated protein-like 4 (EML4) gene and the ALK tyrosine kinase domain; host or cells: Ba/F3 (RIKEN), retroviral pMSCV-puro; the other entry of the earlier key: EML4 (Q9HC35, Echinoderm microtubule-associated protein-like 4)
Excerpt: (§4) Genes encoding CD74-ROS1 wild-type (wt), CD74-ROS1 G2032R, CD74-ROS1 S1986F, CD74-ROS1 L2026M, CD74-ROS1 D2033N, EML4-ALK wt (variant 1), EML4-ALK G1202R (variant 1), EML4-ALK L1196M/G1202R (variant 1), EML4-ALK G1202R/G1269A (variant 1), EML4-ALK G1202R/L1198F (variant 1), and TPM3-TRKA were synthesized at GeneRay, cloned into the retroviral construct pMSCV-puro (Biovector), and packaged into retroviral particles. The virus was used to infect Ba/F3 cells (RIKEN) at multiplicity of infection=1 for 1 day. Infected cells were rescued in media (RPMI-1640 with 10% fetal bovine serum and 1% streptomycin and penicillin) supplemented with mouse IL-3 (10 ng/mL) for 2 days, and stable cell lines were selected by IL-3 withdrawal and puromycin (0.8 μg/mL) for 7 days. Monoclones were selected by single-cell dilution in IL-3-free medium containing puromycin (0.8 μg/mL). Transformation of desired genes was confirmed by Sanger sequencing and western blot using the following antibodies: ROS1 (CST #3287), ALK (CST #3633), and pan-TRK (Abcam #76291).
as §1, §2, §3

[3] = tested on: TPM3-NTRK1-wt IC50 / primary target IC50 (e.g. CD74-ROS1-wt); assay: TRKA selectivity in Ba/F3 cells (TRKA potency divided by primary target potency); conditions: for TPM3-NTRK1-wt/CD74-ROS1-G2032R selectivity ratio: TRKA potency / CD74-ROS1-G2032R potency; for TPM3-NTRK1-wt/EML4-ALK-L1196M-G1202R selectivity ratio: TRKA potency / EML4-ALK-L1196M-G1202R potency; for TPM3-NTRK1-wt/EML4-ALK-wt selectivity ratio: TRKA potency / EML4-ALK-wt potency
Method: TRKA selectivity was calculated by dividing a compound's TRKA potency by its primary target potency (e.g. TPM3-NTRK1-wt IC50/CD74-ROS1-wt IC50). Compound selectivity can be interpreted by binning ratio values: bin A for very high selectivity, ratio >30-fold; bin B for high selectivity, ratio >10-fold; bin C for moderate selectivity, ratio ≥1; and bin D for low selectivity, ratio <1. […] (nd=not determined).

[4] = molecular target: T3, Ba/F3 cells EML4-ALK L1196M/G1202R (variant 1) (Homo sapiens, UniProt Q9UM73, G1202R/L1196M); assay: Ba/F3 cell proliferation assay, EML4-ALK L1196M/G1202R (variant 1); conditions: 72 hours, CellTiter-Glo
T3 construct: echinoderm microtubule-associated protein-like 4 (EML4) gene and the ALK tyrosine kinase domain; host or cells: Ba/F3 (RIKEN), retroviral pMSCV-puro; the other entry of the earlier key: EML4 (Q9HC35, Echinoderm microtubule-associated protein-like 4)
Excerpt: as §4, §1, §2, §3

[5] = molecular target: T4, Ba/F3 cells TPM3-TRKA (Homo sapiens, UniProt P04629); assay: Ba/F3 cell proliferation assay, TPM3-TRKA; conditions: 72 hours, CellTiter-Glo, read-out: TPM3-NTRK1-wt IC50
T4 construct: host or cells: Ba/F3 (RIKEN), retroviral pMSCV-puro; the other entry of the earlier key: TPM3 (P06753, Tropomyosin alpha-3 chain)
Excerpt: as §4, §1, §2, §3

T3 sequence (Q9UM73 with tags, fused parts or gaps L1196M/G1202R): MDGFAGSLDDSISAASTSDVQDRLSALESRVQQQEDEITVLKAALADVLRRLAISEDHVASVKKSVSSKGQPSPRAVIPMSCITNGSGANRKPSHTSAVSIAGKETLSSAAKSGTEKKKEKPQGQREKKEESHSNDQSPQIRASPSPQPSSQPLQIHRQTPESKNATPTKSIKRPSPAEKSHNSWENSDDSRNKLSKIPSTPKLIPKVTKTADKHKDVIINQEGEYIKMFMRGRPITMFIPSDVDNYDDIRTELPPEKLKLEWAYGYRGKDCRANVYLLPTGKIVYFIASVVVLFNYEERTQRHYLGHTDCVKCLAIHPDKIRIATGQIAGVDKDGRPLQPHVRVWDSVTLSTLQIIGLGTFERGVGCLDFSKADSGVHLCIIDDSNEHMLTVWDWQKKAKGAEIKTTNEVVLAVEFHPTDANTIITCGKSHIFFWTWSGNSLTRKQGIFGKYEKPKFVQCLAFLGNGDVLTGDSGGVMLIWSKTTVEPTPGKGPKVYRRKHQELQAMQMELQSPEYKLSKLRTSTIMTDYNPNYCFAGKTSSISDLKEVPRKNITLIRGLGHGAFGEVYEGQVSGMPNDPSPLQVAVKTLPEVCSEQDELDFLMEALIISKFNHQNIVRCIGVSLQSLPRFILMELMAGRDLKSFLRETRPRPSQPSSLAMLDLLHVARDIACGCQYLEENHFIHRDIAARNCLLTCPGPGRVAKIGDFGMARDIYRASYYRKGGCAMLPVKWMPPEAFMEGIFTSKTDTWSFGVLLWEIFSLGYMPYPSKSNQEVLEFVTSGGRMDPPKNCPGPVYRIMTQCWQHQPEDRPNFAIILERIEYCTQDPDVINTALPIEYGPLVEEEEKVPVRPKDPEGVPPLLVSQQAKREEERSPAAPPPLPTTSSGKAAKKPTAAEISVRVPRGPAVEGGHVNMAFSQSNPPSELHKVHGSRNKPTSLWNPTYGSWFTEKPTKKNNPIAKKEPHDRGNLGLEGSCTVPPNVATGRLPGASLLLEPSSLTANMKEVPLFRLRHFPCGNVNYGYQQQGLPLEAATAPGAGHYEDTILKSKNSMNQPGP
T4 sequence (P04629 510-796 limits assumed): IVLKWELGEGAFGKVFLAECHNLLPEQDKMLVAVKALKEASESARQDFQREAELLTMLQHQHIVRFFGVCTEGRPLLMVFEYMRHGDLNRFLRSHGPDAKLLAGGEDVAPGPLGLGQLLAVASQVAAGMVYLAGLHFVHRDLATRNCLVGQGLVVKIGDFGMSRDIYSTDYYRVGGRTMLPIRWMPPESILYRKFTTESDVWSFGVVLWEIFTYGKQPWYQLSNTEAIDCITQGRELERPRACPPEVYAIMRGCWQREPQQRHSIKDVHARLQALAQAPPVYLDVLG
T1 sequence (P08922 1883-2347 G2032R limits assumed): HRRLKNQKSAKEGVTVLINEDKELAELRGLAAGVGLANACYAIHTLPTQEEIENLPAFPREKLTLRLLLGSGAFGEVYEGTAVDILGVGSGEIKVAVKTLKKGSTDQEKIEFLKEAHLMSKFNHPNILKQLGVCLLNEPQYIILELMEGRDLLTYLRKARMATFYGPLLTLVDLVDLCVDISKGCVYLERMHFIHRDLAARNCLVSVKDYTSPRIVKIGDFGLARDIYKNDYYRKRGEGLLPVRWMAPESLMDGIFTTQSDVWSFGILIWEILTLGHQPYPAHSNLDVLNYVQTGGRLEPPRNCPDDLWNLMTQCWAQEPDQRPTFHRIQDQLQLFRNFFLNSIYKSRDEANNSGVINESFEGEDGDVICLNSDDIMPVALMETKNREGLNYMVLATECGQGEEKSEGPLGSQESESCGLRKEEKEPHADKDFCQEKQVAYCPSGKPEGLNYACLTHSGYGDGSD
T2 sequence (Q9UM73 with tags, fused parts or gaps): as the sequence (Q9UM73 with tags, fused parts or gaps L1196M/G1202R) above, with M635L, R641G counted along it

Compound | IC50 [1] | IC50 [2] | IC50 [4] | IC50 [5] | TPM3-NTRK1-wt/CD74-ROS1-G2032R selectivity ratio [3] | TPM3-NTRK1-wt/EML4-ALK-L1196M-G1202R selectivity ratio [3] | TPM3-NTRK1-wt/EML4-ALK-wt selectivity ratio [3]
CCn1ncc2c1-c1cnc(N)c(c1)O[C@H](C)c1cc(F)ccc1-c1c(Cl)cnn1C2 [Example 27, (19R)-11-chloro-3-ethyl-16-fluoro-19-methyl-20-oxa-3,4,8,9,23-pentaazapentacyclo[19.3,1.0^2,^6.0^8,^12.0^13,^18]pentacosa-1(24),2(6),4,9,11,13,15,17,21(25),22-decaen-22-amine] | 0.1 to 50 nM | 0.1 to 50 nM | 50 to 500 nM | > 500 nM | A (bin A for very high selectivity, ratio >30-fold) | C (bin C for moderate selectivity, ratio ≥1) | B (bin B for high selectivity, ratio >10-fold)
CCc1onc2c1-c1cnc(N)c(c1)O[C@H](C)c1cc(F)ccc1-c1nn(C)nc1C2 [Example 31, (19R)-3ethyl-16-fluoro-10,19-dimethyl-4,20-dioxa-5,9,10,11,23-pentaazapentacyclo[19.3.1.0^2,^6.0^8,^12.0^13,^18]pentacosa-1(24),2,5,8,11,13,15,17,21(25),22-decaen-22-amine] | 0.1 to 50 nM |  | 50 to 500 nM | 50 to 500 nM | A (bin A for very high selectivity, ratio >30-fold) | C (bin C for moderate selectivity, ratio ≥1) | 
C[C@H]1Oc2cc(cnc2N)-c2c(C#N)nn(C)c2Cc2ncsc2-c2ccc(F)cc21 [Example 57, (19R)-22-amino-16-fluoro-5,19-dimethyl-20-oxa-11-thia-4,5,9,23-tetraazapentacyclo[19.3.1.0^2,^6.0^8,^12.0^13,^18]pentacosa-1(24),2(6),3,8(12),9,13,15,17,21(25),22-decaene-3-carbonitrile] | 0.1 to 50 nM |  | 50 to 500 nM | > 500 nM | A (bin A for very high selectivity, ratio >30-fold) | C (bin C for moderate selectivity, ratio ≥1) | 
Cc1nc2c(s1)-c1ccc(F)cc1[C@@H](C)Oc1cc(cnc1N)-c1c(C#N)nn(C)c1C2 [Example 68, (19R)-22-amino-16-fluoro-5,10,19-trimethyl-20-oxa-11-thia-4,5,9,23-tetraazapentacyclo[19.3.1.0^2,^6.0^8,^12.0^13,^18]pentacosa-1(24),2(6),3,8(12),9,13,15,17,21(25),22-decaene-3-carbonitrile] | 0.1 to 50 nM |  | 50 to 500 nM | > 500 nM | A (bin A for very high selectivity, ratio >30-fold) | C (bin C for moderate selectivity, ratio ≥1) | 

Further lines, with some results ahead:

IC50 [1] | IC50 [2] | IC50 [4] | IC50 [5] | Compound | TPM3-NTRK1-wt/CD74-ROS1-G2032R selectivity ratio [3] | TPM3-NTRK1-wt/EML4-ALK-L1196M-G1202R selectivity ratio [3] | TPM3-NTRK1-wt/EML4-ALK-wt selectivity ratio [3]
0.1 to 50 nM | 0.1 to 50 nM | 0.1 to 50 nM | 50 to 500 nM | CCn1ncc2c1-c1cnc(N)c(c1)O[C@H](C)c1cc(F)ccc1-c1ncn(C)c1C2 [Example 6, (19R)-3-ethyl-16-fluoro-9,19-dimethyl-20-oxa-3,4,9,11,23-pentaazapentacyclo[19.3.1.0^2,^6.0^8,^12.0^13,^18]pentacosa-1(24),2(6),4,8(12),10,13,15,17,21(25),22-decaen-22-amine] | A (bin A for very high selectivity, ratio >30-fold) | C (bin C for moderate selectivity, ratio ≥1) | A (bin A for very high selectivity, ratio >30-fold)
0.1 to 50 nM |  | 50 to 500 nM | > 500 nM | CCn1ncc2c1-c1cnc(N)c(c1)O[C@H](C)c1cc(F)ccc1-c1c(ncn1C)C2 [Example 11, (19R)-3-ethyl-16-fluoro-11,19-dimethyl-20-oxa-3,4,9,11,23-pentaazapentacyclo[19.3.1.0^2,^6.0^8,^12.0^13,^18]pentacosa-1(24),2(6),4,8(12),9,13,15,17,21(25),22-decaen-22-amine] | A (bin A for very high selectivity, ratio >30-fold) | B (bin B for high selectivity, ratio >10-fold) | 
